Columns and labels:
[1] = biological target: T1, Short transient receptor potential channel 6 (Homo sapiens, UniProt Q9Y210); test: Inhibition of YFP-tagged human TRPC6 expressed in thapsigargin treated HEK293 cells assessed as reduction in amix-induced calcium level by fluo-4 dye based fluorescence assay; assay type: cell-based
T1 sequence (Q9Y210 whole entry): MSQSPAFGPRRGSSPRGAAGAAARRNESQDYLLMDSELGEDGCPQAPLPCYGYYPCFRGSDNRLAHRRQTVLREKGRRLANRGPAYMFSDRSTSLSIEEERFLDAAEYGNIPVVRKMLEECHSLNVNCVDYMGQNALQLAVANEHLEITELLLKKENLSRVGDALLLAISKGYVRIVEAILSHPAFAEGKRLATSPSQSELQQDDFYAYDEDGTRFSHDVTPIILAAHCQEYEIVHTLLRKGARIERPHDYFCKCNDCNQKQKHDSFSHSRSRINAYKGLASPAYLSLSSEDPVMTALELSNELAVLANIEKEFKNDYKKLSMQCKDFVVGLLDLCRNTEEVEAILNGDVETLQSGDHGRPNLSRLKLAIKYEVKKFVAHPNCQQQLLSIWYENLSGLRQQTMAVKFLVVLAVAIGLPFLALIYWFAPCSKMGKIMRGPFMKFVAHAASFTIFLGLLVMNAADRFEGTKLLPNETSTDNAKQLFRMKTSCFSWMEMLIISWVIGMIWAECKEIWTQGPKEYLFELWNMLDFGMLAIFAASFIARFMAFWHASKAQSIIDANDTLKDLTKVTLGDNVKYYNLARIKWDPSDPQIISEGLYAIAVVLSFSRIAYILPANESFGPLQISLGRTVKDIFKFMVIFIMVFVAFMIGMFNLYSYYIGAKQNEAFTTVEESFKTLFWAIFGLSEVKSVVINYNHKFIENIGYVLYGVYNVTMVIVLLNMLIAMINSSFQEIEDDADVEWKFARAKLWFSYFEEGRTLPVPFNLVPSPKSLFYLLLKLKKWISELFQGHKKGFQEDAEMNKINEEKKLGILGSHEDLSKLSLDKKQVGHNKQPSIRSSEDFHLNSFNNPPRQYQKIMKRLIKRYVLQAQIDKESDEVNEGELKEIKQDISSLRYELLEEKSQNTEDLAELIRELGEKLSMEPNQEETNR

[2] = biological target: T2, Short transient receptor potential channel 4 (Mus musculus, UniProt Q9QUQ5); test: Inhibition of YFP-tagged mouse TRPC4 beta expressed in thapsigargin treated HEK293 cells co-expressing M3 receptor assessed as reduction in carbachol-induced calcium level by fluo-4 dye based fluorescence assay; assay type: cell-based
T2 sequence (Q9QUQ5 whole entry): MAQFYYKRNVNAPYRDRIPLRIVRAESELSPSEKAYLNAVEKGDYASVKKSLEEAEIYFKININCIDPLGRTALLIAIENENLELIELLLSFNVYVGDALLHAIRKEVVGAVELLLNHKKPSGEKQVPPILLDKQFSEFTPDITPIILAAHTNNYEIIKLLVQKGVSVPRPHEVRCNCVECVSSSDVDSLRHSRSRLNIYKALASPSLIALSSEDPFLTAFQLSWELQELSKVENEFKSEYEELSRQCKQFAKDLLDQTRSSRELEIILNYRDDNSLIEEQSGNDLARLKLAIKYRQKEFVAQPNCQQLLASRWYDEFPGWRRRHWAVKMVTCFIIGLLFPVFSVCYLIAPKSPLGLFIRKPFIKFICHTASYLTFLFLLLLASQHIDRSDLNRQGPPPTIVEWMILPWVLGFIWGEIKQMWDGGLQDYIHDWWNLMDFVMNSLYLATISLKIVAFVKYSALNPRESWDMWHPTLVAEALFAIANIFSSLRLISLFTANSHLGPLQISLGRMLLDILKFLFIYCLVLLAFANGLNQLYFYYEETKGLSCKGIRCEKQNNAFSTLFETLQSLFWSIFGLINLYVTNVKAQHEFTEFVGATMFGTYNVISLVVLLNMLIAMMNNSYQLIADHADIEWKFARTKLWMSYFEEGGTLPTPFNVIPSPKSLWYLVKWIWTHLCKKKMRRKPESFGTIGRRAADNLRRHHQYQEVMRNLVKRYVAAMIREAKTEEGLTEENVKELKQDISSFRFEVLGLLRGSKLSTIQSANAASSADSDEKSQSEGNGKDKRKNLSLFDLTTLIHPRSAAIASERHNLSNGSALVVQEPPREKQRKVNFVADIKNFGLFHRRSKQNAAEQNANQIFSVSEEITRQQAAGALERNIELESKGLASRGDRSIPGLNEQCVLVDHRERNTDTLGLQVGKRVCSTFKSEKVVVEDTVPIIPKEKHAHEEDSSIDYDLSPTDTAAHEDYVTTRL

[3] = Selectivity ratio of IC50 for YFP-tagged human TRPC3 expressed in thapsigargin treated HEK293 cells to IC50 for mouse TRPC5 expressed in thapsigargin treated HEK293/TREx cells; assay type: cell-based
[4] = biological target: T2, Short transient receptor potential channel 4; test: Inhibition of mouse TRPC4 by FLIPR assay
[5] = biological target: T3, Short transient receptor potential channel 3 (Homo sapiens, UniProt Q13507); test: Inhibition of human TRPC3 expressed in CHO cells assessed as reduction in OAG-induced calcium influx after 10 mins by fluo-4/AM dye based FLIPR assay; assay type: cell-based
T3 sequence (Q13507 whole entry): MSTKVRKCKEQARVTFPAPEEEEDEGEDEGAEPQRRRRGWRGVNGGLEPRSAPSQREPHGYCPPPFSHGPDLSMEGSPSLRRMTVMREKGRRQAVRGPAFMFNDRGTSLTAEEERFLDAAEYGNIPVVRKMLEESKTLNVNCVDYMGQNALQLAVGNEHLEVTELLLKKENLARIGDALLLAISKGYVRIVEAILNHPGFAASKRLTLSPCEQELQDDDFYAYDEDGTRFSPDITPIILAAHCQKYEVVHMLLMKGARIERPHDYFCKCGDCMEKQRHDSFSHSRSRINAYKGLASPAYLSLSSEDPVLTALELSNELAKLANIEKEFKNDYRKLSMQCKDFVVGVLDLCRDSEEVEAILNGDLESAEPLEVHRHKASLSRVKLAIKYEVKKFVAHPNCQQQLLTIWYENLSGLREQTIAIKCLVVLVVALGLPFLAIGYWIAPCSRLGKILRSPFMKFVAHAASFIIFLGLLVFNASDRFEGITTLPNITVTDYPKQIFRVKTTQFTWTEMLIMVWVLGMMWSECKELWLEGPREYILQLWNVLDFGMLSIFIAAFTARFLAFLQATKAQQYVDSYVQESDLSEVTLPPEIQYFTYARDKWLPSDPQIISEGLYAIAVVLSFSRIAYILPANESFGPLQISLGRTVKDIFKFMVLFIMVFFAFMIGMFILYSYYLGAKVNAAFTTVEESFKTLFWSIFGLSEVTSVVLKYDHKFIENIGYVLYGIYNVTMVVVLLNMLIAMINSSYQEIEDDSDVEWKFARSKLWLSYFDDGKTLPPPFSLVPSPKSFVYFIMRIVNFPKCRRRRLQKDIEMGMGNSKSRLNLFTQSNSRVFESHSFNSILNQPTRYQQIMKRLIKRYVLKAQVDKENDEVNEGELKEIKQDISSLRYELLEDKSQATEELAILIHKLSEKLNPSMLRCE

| IC50 [1] [µM] | IC50 [2] [µM] | IC50 [4] [µM] | IC50 [5] [µM] | SMILES | Ratio IC50 [3] |
| --- | --- | --- | --- | --- | --- |
| 11.3 | 6.4 | – | – | Clc1ccc(Cn2c(CN3CCCC3)nc3ccccc32)cc1 [CLEMIZOLE] | 10 |
| – | – | > 10 | 0.282 | N#Cc1ccc(O[C@@H]2c3ccccc3C[C@H]2N2CCC[C@@H](N)C2)c(Cl)c1 | – |

Source: ChEMBL document CHEMBL4376804, “Review of Transient Receptor Potential Canonical (TRPC5) Channel Modulators and Diseases” (J Med Chem, 2019)
